Assay results as given in ChEMBL document CHEMBL4680085 (J Med Chem, 2016).
The source made the active and inactive calls. The rule behind the calls is not given here.

What was measured:
[1] = biological target: T1, Nuclear factor erythroid 2-related factor 2 (Homo sapiens) (UniProt Q16236); assay: Activation of NRF2 in human MCF-7/AREc32 cells at 3 uM incubated for 24 hrs by luciferase reporter gene assay; assay type: cell-based; details: MCF7, filed as activator
T1 sequence (whole entry): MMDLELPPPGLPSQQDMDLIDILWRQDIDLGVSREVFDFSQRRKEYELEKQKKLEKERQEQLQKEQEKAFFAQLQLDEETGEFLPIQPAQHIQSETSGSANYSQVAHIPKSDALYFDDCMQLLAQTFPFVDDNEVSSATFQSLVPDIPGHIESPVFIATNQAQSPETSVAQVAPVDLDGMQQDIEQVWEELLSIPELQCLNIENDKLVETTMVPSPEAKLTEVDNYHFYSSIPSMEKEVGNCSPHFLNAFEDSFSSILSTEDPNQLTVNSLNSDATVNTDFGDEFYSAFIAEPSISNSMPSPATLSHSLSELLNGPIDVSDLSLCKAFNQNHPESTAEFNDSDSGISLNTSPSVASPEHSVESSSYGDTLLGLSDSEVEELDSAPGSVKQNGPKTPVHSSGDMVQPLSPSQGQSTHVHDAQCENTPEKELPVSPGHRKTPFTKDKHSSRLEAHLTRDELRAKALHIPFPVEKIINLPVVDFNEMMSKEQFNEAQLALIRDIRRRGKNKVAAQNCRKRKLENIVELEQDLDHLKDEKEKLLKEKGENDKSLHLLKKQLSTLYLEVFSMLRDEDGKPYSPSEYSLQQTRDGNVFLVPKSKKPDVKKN

[2] = biological target: T1, Nuclear factor erythroid 2-related factor 2 (Homo sapiens); assay: Activation of NRF2 in human MCF-7/AREc32 cells at 10 to 30 uM incubated for 24 hrs by luciferase reporter gene assay; assay type: cell-based; details: MCF7, filed as activator, dose 10-30 µM
[3] = biological target: T1, Nuclear factor erythroid 2-related factor 2 (Homo sapiens); assay: Activation of NRF2 in human MCF-7/AREc32 cells assessed as concentration required to double Nrf2 transcriptional pathway by measuring specific luciferase reporter activity incubated for 24 hrs by luciferase reporter gene assay; assay type: cell-based
SH-SY5Y [4] = assay: Neuroprotection in human SH-SY5Y cells assessed as reduction in H2O2-induced cell death at >0.01 uM incubated for 24 hrs by MTT assay; assay type: functional, cell-based; details: dose microM >0.01, time […]
SH-SY5Y [5] = assay: Neuroprotection in human SH-SY5Y cells assessed as reduction in beta-amyloid peptide (1-40)-induced cell death at >0.01 uM incubated for 24 hrs by MTT assay; assay type: functional, cell-based; details: dose microM >0.01, time […]
SH-SY5Y [6] = assay: Neuroprotection in human SH-SY5Y cells assessed as reduction in beta-amyloid peptide (1-42)-induced cell death at 0.01 uM incubated for 24 hrs by MTT assay; assay type: functional; design: scale not given: the % may be the effect or the level left
in vitro [7] = details: human, HepG2 cells
Description: Toxicity in human HepG2 cells assessed as cell viability at 100 uM by MTT assay relative to control

SH-SY5Y [8] = assay: Neuroprotection in human SH-SY5Y cells assessed as reduction in beta-amyloid peptide (1-40)-induced cell death at 1 uM incubated for 24 hrs by MTT assay; assay type: functional; design: scale not given: the % may be the effect or the level left
SH-SY5Y [9] = assay: Neuroprotection in human SH-SY5Y cells assessed as reduction in H2O2-induced cell death at 1 uM incubated for 24 hrs by MTT assay; assay type: functional; design: scale not given: the % may be the effect or the level left
SH-SY5Y [10] = assay: Neuroprotection in human SH-SY5Y cells assessed as reduction in Rotenone/Oligomycin A -induced cell death at 3 uM incubated for 24 hrs by MTT assay; assay type: functional; design: scale not given: the % may be the effect or the level left
SH-SY5Y [11] = assay: Neuroprotection in human SH-SY5Y cells assessed as reduction in Rotenone/Oligomycin A -induced cell death at 1 uM incubated for 24 hrs by MTT assay; assay type: functional; design: scale not given: the % may be the effect or the level left
SH-SY5Y [12] = assay: Neuroprotection in human SH-SY5Y cells assessed as reduction in beta-amyloid peptide (1-40)-induced cell death at 3 uM incubated for 24 hrs by MTT assay; assay type: functional; design: scale not given: the % may be the effect or the level left
SH-SY5Y [13] = assay: Neuroprotection in human SH-SY5Y cells assessed as reduction in beta-amyloid peptide (1-42)-induced cell death at 3 uM incubated for 24 hrs by MTT assay; assay type: functional; design: scale not given: the % may be the effect or the level left
SH-SY5Y [14] = assay: Neuroprotection in human SH-SY5Y cells assessed as reduction in H2O2-induced cell death at 3 uM incubated for 24 hrs by MTT assay; assay type: functional; design: scale not given: the % may be the effect or the level left
SH-SY5Y [15] = assay: Neuroprotection in human SH-SY5Y cells assessed as reduction in beta-amyloid peptide (1-42)-induced cell death at 1 uM incubated for 24 hrs by MTT assay; assay type: functional; design: scale not given: the % may be the effect or the level left
SH-SY5Y [16] = assay: Neuroprotection in human SH-SY5Y cells assessed as reduction in Rotenone/Oligomycin A -induced cell death at 0.01 uM incubated for 24 hrs by MTT assay; assay type: functional; design: scale not given: the % may be the effect or the level left
in vitro [17] = details: human, HepG2 cells; remark: listed apart in the source
Description: Toxicity in human HepG2 cells assessed as cell viability at 300 uM by MTT assay relative to control

SH-SY5Y [18] = assay: Neuroprotection in human SH-SY5Y cells assessed as reduction in beta-amyloid peptide (1-42)-induced cell death at >0.01 uM incubated for 24 hrs by MTT assay; assay type: functional, cell-based; details: dose microM >0.01, time […]
SH-SY5Y [19] = assay: Neuroprotection in human SH-SY5Y cells assessed as reduction in H2O2-induced cell death at 0.01 uM incubated for 24 hrs by MTT assay; assay type: functional; design: scale not given: the % may be the effect or the level left
SH-SY5Y [20] = assay: Neuroprotection in human SH-SY5Y cells assessed as reduction in Rotenone/Oligomycin A -induced cell death at >0.01 uM incubated for 24 hrs by MTT assay; assay type: functional, cell-based; details: dose microM >0.01, time […]
SH-SY5Y [21] = assay: Neuroprotection in human SH-SY5Y cells assessed as reduction in beta-amyloid peptide (1-40)-induced cell death at 0.01 uM incubated for 24 hrs by MTT assay; assay type: functional; design: scale not given: the % may be the effect or the level left
in vitro [22] = details: human, HepG2 cells; remark: listed apart in the source
Description: Toxicity in human HepG2 cells assessed as cell viability at 1000 uM by MTT assay relative to control

[23] = Antioxidant activity assessed as decrease in peak intensity of hydroxyl radicals at 100 uM by N-oxide self-spin assay relative to control; assay type: functional; design: scale not given: the % may be the effect or the level left
Cholinesterase [24] = biological target: Cholinesterase (Equus caballus, UniProt P81908)
Description: Inhibition of horse serum BuChE pre-incubated for 10 mins before addition of butyrylthiocholine iodide substrate and further incubated for 15 mins by Ellman's method

Acetylcholinesterase [25] = biological target: Acetylcholinesterase (Electrophorus electricus, UniProt O42275); assay: Inhibition of Electrophorus electricus AChE pre-incubated for 10 mins before addition of acetylthiocholine iodide substrate and further incubated for 15 mins by Ellman's method
Cholinesterase [26] = biological target: T2, Cholinesterase (Homo sapiens, UniProt P06276); assay: Inhibition of BuChE in human erythrocyte hemo-lyzates pre-incubated for 5 mins before addition of butyrylthiocholine iodide substrate by Ellman's method; assay type: tissue-based
Acetylcholinesterase [27] = biological target: T3, Acetylcholinesterase (Homo sapiens, UniProt P22303); assay: Inhibition of AChE in human erythrocyte hemo-lyzates pre-incubated for 5 mins before addition of acetylthiocholine iodide substrate by Ellman's method; assay type: tissue-based
Acetylcholinesterase [28] = biological target: T3, Acetylcholinesterase; assay: Mixed type inhibition of AChE in human erythrocyte hemo-lyzates using acetylthiocholine iodide substrate by Ellman's method based Lineweaver-Burk plot analysis; assay type: tissue-based
[29] = Effective permeability at 100 uM after 3 to 6 hrs by PAMPA assay; assay type: ADME; details: time 3-6 hrs, read-out: Peff
[30] = Ratio of antioxidant activity of melatonin to antioxidant activity of test compound assessed as AAPH radical scavenging activity incubated for 15 mins by ORAC-FL method relative to Trolox; assay type: functional
[31] = Ratio of antioxidant activity of LA to antioxidant activity of test compound assessed as AAPH radical scavenging activity incubated for 15 mins by ORAC-FL method relative to Trolox; assay type: functional
[32] = Ratio of antioxidant activity of FA to antioxidant activity of test compound assessed as AAPH radical scavenging activity incubated for 15 mins by ORAC-FL method relative to Trolox; assay type: functional
Cholinesterase [33] = biological target: T2, Cholinesterase; assay: Competitive type inhibition of BuChE in human erythrocyte hemo-lyzates using […] substrate by Ellman's method based Lineweaver-Burk plot analysis; assay type: tissue-based

T3 sequence (P22303 whole entry): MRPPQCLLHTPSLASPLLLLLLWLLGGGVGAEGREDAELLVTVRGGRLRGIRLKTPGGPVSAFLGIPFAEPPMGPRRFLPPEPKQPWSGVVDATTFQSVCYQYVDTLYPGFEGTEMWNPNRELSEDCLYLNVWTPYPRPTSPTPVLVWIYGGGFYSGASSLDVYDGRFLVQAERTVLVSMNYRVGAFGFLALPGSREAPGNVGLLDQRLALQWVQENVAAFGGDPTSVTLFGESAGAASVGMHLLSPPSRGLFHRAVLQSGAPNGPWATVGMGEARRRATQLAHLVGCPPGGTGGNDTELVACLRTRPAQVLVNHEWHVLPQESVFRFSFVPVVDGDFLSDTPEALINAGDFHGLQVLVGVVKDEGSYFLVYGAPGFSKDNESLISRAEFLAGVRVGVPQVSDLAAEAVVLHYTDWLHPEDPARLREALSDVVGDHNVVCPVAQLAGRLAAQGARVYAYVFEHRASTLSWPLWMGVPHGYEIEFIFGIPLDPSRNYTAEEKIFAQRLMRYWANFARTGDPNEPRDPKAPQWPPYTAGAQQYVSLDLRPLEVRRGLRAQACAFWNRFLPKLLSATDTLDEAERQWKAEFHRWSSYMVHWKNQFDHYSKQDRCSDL
T2 sequence (P06276 whole entry): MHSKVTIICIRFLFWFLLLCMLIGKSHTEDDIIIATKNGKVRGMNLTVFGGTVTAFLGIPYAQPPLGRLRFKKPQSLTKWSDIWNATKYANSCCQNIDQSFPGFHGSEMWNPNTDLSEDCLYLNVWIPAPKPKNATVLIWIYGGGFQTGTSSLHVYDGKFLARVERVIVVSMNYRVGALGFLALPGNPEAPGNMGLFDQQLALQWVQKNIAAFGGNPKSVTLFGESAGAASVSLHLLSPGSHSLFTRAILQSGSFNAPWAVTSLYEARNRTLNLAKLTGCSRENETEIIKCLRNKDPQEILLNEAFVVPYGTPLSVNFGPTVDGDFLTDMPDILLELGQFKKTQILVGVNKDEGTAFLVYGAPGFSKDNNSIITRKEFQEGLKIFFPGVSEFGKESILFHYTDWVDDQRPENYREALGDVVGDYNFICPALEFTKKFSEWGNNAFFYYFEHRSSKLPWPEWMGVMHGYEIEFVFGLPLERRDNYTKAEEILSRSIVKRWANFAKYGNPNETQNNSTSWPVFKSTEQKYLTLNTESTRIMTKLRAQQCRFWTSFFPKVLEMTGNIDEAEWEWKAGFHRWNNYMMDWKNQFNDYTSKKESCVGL
Chain of Acetylcholinesterase (Electrophorus electricus, UniProt O42275) (O42275 whole entry): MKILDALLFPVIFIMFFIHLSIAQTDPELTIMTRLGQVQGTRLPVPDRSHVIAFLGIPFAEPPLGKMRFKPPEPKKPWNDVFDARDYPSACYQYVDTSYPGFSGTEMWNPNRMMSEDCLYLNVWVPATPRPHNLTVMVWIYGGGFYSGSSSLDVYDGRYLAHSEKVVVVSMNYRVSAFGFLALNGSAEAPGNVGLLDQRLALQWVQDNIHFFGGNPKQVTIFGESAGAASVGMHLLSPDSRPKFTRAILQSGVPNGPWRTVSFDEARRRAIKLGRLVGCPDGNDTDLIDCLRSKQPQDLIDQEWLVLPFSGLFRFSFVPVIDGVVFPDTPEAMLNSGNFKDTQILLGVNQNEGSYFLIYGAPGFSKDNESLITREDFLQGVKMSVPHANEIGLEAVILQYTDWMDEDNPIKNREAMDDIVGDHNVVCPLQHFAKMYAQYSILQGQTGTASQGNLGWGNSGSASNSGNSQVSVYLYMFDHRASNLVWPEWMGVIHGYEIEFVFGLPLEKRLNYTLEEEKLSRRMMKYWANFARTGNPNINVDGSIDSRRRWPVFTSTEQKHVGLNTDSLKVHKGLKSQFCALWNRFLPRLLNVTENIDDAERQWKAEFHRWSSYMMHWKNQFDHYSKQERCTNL
Chain of Cholinesterase (Equus caballus, UniProt P81908) (P81908 whole entry): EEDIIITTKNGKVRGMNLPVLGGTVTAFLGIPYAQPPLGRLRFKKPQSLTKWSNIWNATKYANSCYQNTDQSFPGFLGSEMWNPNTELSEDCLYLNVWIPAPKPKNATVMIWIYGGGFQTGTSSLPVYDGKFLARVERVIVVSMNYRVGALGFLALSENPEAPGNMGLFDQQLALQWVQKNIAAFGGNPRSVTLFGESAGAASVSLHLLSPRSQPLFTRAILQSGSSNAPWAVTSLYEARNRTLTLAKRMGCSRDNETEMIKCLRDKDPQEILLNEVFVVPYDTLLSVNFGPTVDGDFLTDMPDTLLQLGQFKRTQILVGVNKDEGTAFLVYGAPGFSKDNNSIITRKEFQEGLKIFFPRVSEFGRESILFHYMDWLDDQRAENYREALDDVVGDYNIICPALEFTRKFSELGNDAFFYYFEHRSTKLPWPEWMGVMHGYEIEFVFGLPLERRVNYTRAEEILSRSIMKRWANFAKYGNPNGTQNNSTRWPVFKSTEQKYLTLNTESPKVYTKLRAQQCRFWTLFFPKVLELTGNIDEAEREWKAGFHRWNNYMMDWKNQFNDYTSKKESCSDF

Row | SMILES | Activity [1] | Activity [2] | CD ([3]; MCF7, filed as activator) [µM] | viability at 100 µM (in vitro [7]) [%] | Activity (SH-SY5Y [8]) [%] | Activity (SH-SY5Y [9]) [%] | Activity (SH-SY5Y [10]) [%] | Activity (SH-SY5Y [11]) [%] | Activity (SH-SY5Y [12]) [%] | Activity (SH-SY5Y [13]) | Activity (SH-SY5Y [14]) [%] | Activity (SH-SY5Y [15]) [%] | viability at 300 µM (in vitro [17]) [%] | viability at 1000 µM (in vitro [22]) [%] | IC50 (Cholinesterase [24]) [µM] | IC50 (Acetylcholinesterase [25]) [µM] | IC50 (Cholinesterase [26]) [µM] | IC50 (Acetylcholinesterase [27]) [µM] | also measured
1 | CC(C)(C)c1cc(O)ccc1O | Active | Active | 1.68 | – | – | – | – | – | – | – | – | – | – | – | – | – | – | – | –
2 | COc1ccc2[nH]cc(CCNC(C)=O)c2c1 [MELATONIN] | Active | Active | – | 91.4 | 35.5 | 47.4 | 59.1 | 50.1 | 60.2 | 15.3% | 60.7 | 39.4 | 71.8 | 72.3 | – | – | – | – | Activity (SH-SY5Y [4]): inactive; Activity (SH-SY5Y [5]): inactive; Activity (SH-SY5Y [6]): 81.4%; CD ([3]; MCF7): > 60 µM; Activity (SH-SY5Y [16]): 66.6%; Activity (SH-SY5Y [18]): inactive; Activity (SH-SY5Y [19]): 55.4%; Activity (SH-SY5Y [20]): inactive; Activity (SH-SY5Y [21]): 33%
3 | CC(=O)SCCC(=O)NCCCCCCNc1c2c(nc3cc(Cl)ccc13)CCCC2 | – | – | – | – | – | – | – | – | – | – | – | – | – | – | – | – | – | – | Activity [23]: 80.3%
4 | COc1ccc2nc3c(c(NCCCCCCCCN(CC(=O)NCCc4c[nH]c5ccc(OC)cc45)C(=O)CCCC[C@@H]4CCSS4)c2c1)CCCC3 | – | – | – | 86.2 | – | – | – | – | – | – | – | – | 77.8 | 44.9 | 0.00822 | 0.0148 | 1.73 | > 10 | –
5 | COc1ccc2nc3c(c(NCCCCCCCN(CC(=O)NCCc4c[nH]c5ccc(OC)cc45)C(=O)/C=C/c4ccc(O)c(OC)c4)c2c1)CCCC3 | Active | Active | 6.31 | 84.7 | 70.6 | 37.6 | 41.7 | 33.7 | 56.7 | 57.4% | 30.9 | 81.4 | 69.9 | 68.7 | 0.00291 | 0.00837 | 0.234 | 1.29 | inhibition (Acetylcholinesterase [28]): Active; Papp at 100 µM [29]: 42 nm/s; Ratio [30]: 3.96; Ratio [31]: 38; Ratio [32]: 2.43; inhibition (Cholinesterase [33]): Active
6 | COC(=O)/C=C/c1ccc(O)c(OC)c1 | – | – | – | – | 27.8 | 51.1 | 21.3 | 23.8 | 53.9 | inactive | 56.9 | 40.7 | – | – | – | – | – | – | –
